Entries after “also recorded” stand apart in the source; their conditions may differ.
Tests used:
[1] = tested on: chymotrypsin; experiment: chymotrypsin in HEPES buffer solution (50 mM, pH = 7.4); conditions: 37 °C, up to 8 h
[2] = target: T1, chymotrypsin (Bos taurus, UniProt P00766); experiment: LC-MS analysis of enzymatic fragments and cleavage sites with chymotrypsin; format: in vitro ADME; design: purchased; conditions: LC-MS (ESI); HEPES 50 mM pH 7.4, 37 °C, peptide:protease 40:1
Procedure: To further investigate how glycosylation promotes the enzymatic digestion of D-amino acid-containing peptides, we analyzed the enzymatic cleavage sites of the glycosylated peptides using LC-MS (Figures S6–S14).
(β-D-GalNAc ) (H) in the presence of chymotrypsin. The peptides were dissolved in HEPES
Chymotrypsin was added to the above solution. In which the peptide: protease (ω: ω) = 40:1.
Incubation was performed at 37°C. Method of stopping enzymatic digestion after reaching
reaction time: Chymotrypsin is extinguished with 1% TFA. Each experiment was performed

[3] = target: T1, chymotrypsin; experiment: Enzymatic degradation by chymotrypsin, substrate decay followed by HPLC; conditions: 37 °C; for Substrate decay rate constant in the presence of chymotrypsin: peptide 0.5 mg/mL in HEPES 50 mM pH 7.4, chymotrypsin 0.5 mg/mL, peptide:protease 40:1 (w/w), stopped with 1% TFA, HPLC-UV 215 nm, fit y=A0×exp(−k1×x), each experiment three times, Figure 7; for Enzymatic degradation by chymotrypsin, compared with 5-t: peptide 0.5 mg/mL, HEPES 50 mM pH 7.4, chymotrypsin 0.5 mg/mL, 40:1 (w/w), up to 8 h, HPLC, three times, Figures 5C, 6
[4] = tested on: papain; experiment: papain in HEPES buffer (50 mM, pH=7.4); conditions: 37 °C, up to 8 h
[5] = tested on: pepsin; experiment: pepsin in HEPES buffer (50 mM, pH=7.4); conditions: 37 °C, up to 8 h
[6] = target: T2, Proteinase K (PROK) (Parengyodontium album, UniProt P06873); experiment: Enzymatic degradation by Proteinase K (PROK), protease resistance; format: in vitro ADME; conditions: peptide 0.5 mg/mL in HEPES 50 mM pH 7.4 (600 μL) + PROK 1.5 mg/mL (15.0 μL); 50 °C; 0-8 h; quenched with 1% TFA; HPLC 215 nm; three times; Figure 4
T2 construct: purchased
T2 sequence (P06873 106-384): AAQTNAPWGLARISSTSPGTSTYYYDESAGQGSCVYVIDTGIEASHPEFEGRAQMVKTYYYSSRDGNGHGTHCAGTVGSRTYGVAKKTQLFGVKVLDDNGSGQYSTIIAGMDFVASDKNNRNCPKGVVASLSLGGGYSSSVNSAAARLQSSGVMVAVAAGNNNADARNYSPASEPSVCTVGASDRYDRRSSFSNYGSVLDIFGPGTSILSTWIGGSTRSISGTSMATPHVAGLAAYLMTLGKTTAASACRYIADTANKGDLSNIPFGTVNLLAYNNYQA
Procedure: The peptides were dissolved in HEPES buffer (50 mM, pH = 7.4) to a final concentration of 0.5 mg/mL. Proteinase K (PROK) was prepared in deionized water at a final concentration of 1.5 mg/mL. The peptide solutions (600 μL) were then incubated with PROK solution (15.0 μL) at 50 °C. At 0, 0.5, 1.0, 2.0, 4.0, and 8.0 h intervals, 100 μL of the digestion mixture was taken and quenched with 100 μL of 1% TFA in water. The enzymatic hydrolysis of peptides was monitored by HPLC at 215 nm. Each experiment was performed three times.

[7] = RP-HPLC retention time of peptides (hydrophobicity/polarity); format: physicochemical; conditions: chromatographic, C18 reversed phase, 0.1% TFA water/acetonitrile, gradient 10-50% solvent B over 30 min, 1 mL/min, UV; used as measure of hydrophobicity/polarity; Figure 3D
Procedure: Purification was performed on a ZORBAX Eclipse XDB-C18 reversed-phase column (5 μm, 9.4 × 250 mm, Agilent, Santa Clara, CA, USA) using solvent A (0.1% TFA in water) and solvent B (0.1% TFA in acetonitrile). Elution was performed at a flow rate of 1 mL/min with a gradient of 10–50% solvent B over 30 min, and detection was carried out using a UV detector at 220 nm. All purified peptide samples were freeze-dried to yield a white powder.

cleaved bond [1]	Cleavage sites in the presence of chymotrypsin [2]	Substance	Enzymatic fragments in the presence of chymotrypsin [2]	also measured
Arg7-Ser8	–	KTNE(t-β-D-Gal-NAc)WRSED	–	–
–	Tyr2-Asn3, Arg7-Ser8	KTNE(t-β-D-Gal-NAc)WRSED [5-t-(β-D-GalNAc)]	KY, NE-(t-β-D-GalNAc)-WR, NE-(t-β-D-Gal-NAc)-WRSED, SED	Substrate decay rate constant in the presence of chymotrypsin [3]: 0.106 h⁻¹
Arg7-Ser8; also recorded: Tyr2-Asn3	–	KYNE(t-α-D-Glc)WRSED	–	–
–	Tyr2-Asn3, Arg7-Ser8	KYNE(t-α-D-Glc)WRSED [5-t-(α-D-Glc)]	KY, NE-(t-α-D-Glc)-WR, NE-(t-α-D-Glc)-WRSED, SED	–
Tyr2-Asn3; also recorded: Arg7-Ser8	–	KYNE(t-β-D-Gal)WRSED	–	–
–	Tyr2-Asn3, Arg7-Ser8	KYNE(t-β-D-Gal)WRSED [5-t-(β-D-Gal)]	KY, NE-(t-β-D-Gal)-WR, NE-(t-β-D-Gal)-WRSED, SED	–
Tyr2-Asn3; also recorded: Arg7-Ser8	–	KYNE(t-β-D-Glc)WR(S-β-D-Glc)ED	–	–
Tyr2-Asn3; also recorded: Arg7-Ser8	–	KYNE(t-β-D-Glc)WRSED	–	not cleaved [4]: no enzymatic degradation; substrate molar fraction 1.0 at 8 h; not cleaved [5]: no enzymatic degradation; substrate molar fraction 1.0 at 8 h
–	–	KYNE(t-β-D-Glc-Ac4)WRSED [5-t-(β-D-Glc-Ac4)]	–	Retention time in RP-HPLC [7]: 21.481 min
Tyr2-Asn3; also recorded: Arg7-Ser8	–	KYNE(t-β-D-Rib)WRSED	–	–
–	Tyr2-Asn3, Arg7-Ser8	KYNE(t-β-D-Rib)WRSED [5-t-(β-D-Rib)]	KY, KYNE-(t-β-D-Rib)-WR, NE-(t-β-D-Rib)-WR, NE-(t-β-D-Rib)-WRSED, SED	Substrate decay rate constant in the presence of chymotrypsin [3]: 0.187 h⁻¹; Enzymatic degradation by chymotrypsin, compared with 5-t [3]: digested more efficiently than 5-t
Tyr2-Asn3; also recorded: Arg7-Ser8	–	KYNE(t-β-L-Rib)WRSED	–	–
Tyr2-Asn3; also recorded: Arg7-Ser8	–	KYNEtWR(S-β-D-Glc)ED	–	–
Tyr2-Asn3; also recorded: Arg7-Ser8	–	KYNEtWRSED	–	not cleaved [4]: no enzymatic degradation; substrate molar fraction 1.0 at 8 h; not cleaved [5]: no enzymatic degradation; substrate molar fraction 1.0 at 8 h
–	Tyr2-Asn3, Arg7-Ser8	KYNEtWRSED [5-t]	KY, NE-t-WR, NE-t-WRSED, SED	Substrate decay rate constant in the presence of chymotrypsin [3]: 0.103 h⁻¹

Substance	cleaved bond [1]	Cleavage sites in the presence of chymotrypsin [2]	Enzymatic fragments in the presence of chymotrypsin [2]	also measured
KYNE(t-β-D-Glc)WRSED [5-t-(β-D-Glc)]	–	Tyr2-Asn3, Arg7-Ser8	KY, NE-(t-β-D-Glc)-WR, NE-(t-β-D-Glc)-WRSED, SED	Enzymatic degradation by PROK, substrate decay curves compared [6]: nearly identical
KYNE(t-β-L-Rib)WRSED [5-t-(β-L-Rib)]	–	Tyr2-Asn3, Arg7-Ser8	KY, KYNE(t-β-L-Rib)-WR, NE-(t-β-L-Rib)-WR, NE-(t-β-L-Rib)-WRSED, SED	Enzymatic degradation by PROK, substrate decay curves compared [6]: more pronounced inhibitory effect on peptide enzymatic degradation compared to D-ribose; Substrate decay rate constant in the presence of chymotrypsin [3]: 0.144 h⁻¹; Enzymatic degradation by chymotrypsin, compared with 5-t [3]: digested more efficiently than 5-t
KYNEtWR(S-β-D-Glc)ED [5-t-(S-β-D-Glc)]	–	Tyr2-Asn3, Arg7-Ser8	KY, KYNE-t-WR, NE-t-WR, NE-t-WR-(S-β-D-Glc)-ED, (S-β-D-Glc)-ED	Enzymatic degradation by PROK, substrate decay curves compared [6]: higher than that of 5-t-(β-D-Glc)

From PMC11820358 (Molecules, 2025)
